From patent US9695154B2, “Heteroaryl inhibitors of sumo activating enzyme” (MILLENNIUM PHARMACEUTICALS, INC., priority 2013, dated 2017) come the findings set out here.

Each structure is given as a SMILES string.

The target of this test is T1, recombinant human SAE enzyme (Homo sapiens, UniProt Q9UBT2).
T1 sequence (Q9UBT2 1-640): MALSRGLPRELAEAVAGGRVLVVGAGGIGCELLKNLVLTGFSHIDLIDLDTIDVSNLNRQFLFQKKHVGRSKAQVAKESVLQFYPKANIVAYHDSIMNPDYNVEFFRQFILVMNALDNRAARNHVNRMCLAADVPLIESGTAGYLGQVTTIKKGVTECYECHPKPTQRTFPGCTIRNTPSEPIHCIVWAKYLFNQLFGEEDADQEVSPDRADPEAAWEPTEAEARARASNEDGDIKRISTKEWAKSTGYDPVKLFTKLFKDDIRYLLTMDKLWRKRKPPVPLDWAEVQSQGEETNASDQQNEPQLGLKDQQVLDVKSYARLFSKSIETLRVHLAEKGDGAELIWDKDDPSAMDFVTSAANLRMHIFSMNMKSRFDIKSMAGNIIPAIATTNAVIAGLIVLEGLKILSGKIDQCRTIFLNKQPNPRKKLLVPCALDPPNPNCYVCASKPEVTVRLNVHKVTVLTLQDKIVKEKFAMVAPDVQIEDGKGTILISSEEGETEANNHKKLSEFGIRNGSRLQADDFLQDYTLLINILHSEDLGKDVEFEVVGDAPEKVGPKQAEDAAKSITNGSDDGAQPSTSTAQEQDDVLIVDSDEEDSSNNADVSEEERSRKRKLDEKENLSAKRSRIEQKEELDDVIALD
T1 sequence (Q9UBE0 1-346 partner): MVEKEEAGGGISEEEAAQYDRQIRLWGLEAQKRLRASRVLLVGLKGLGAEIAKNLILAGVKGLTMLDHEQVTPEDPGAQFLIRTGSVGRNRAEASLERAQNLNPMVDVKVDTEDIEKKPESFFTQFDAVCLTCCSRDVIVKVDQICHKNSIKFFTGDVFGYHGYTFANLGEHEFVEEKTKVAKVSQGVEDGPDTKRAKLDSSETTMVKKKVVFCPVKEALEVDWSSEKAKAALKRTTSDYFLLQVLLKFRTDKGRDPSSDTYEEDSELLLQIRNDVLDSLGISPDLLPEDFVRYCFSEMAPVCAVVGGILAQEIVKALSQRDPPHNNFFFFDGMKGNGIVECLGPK
As to the kind of experiment: SAE HTRF Enzyme Assay. The format is biochemical. The settings on record: for IC50: class symbols A-C; for inhibition at 0.111 µM: compound concentration 0.111 μM, read-out: Percent Inhibition. The protocol:
The SAE enzymatic reaction totals 50 μl and contains 50 mM HEPES Hemisodium (pH 7.5), 0.05% BSA, 5 mM MgCl2, 0.5 μM ATP, 250 μM GSH, 0.01 μM Ubc9-GST, 0.125 μM Sumo-Flag and 0.11 nM recombinant human SAE enzyme. The enzymatic reaction mixture with and without inhibitor, Is incubated at 24° C. for 105 min in a 384-well plate before termination with […] of Stop/Detection buffer (0.1M HEPES Hemisodium pH 7.5, 0.05% Tween20, 20 mM EDTA, 410 mM KF, 0.53 nM Europium-Cryptate labeled monoclonal anti-Flag M2 Antibody (CisBio International) and 8.125 μg/ml PHYCOLINK goat anti-GST allophycocyanin (XL-APC) antibody (Prozyme)). After incubation for 2 hours at 24° C., quantification of FRET is performed on the Pherostar™ (BMG Labtech). Percentage inhibition values at a single concentration or enzyme inhibition (IC50) values are determined from those curves. One skilled in the art will appreciate that the values generated either as percentage inhibition at a single concentration or IC50 values are subject to experimental variation.
Background: TR-FRET usually uses a lanthanide donor and a delayed reading to cut background.

`Cc1ccc(Cn2ccc(C(=O)c3cncnc3N[C@@H]3C[C@H](COS(N)(=O)=O)[C@@H](O)[C@H]3O)n2)cc1F` [Compound I-198, {(1R,2R,3S,4R)-4-[(5-{[1-(3-fluoro-4-methylbenzyl)-1H-pyrazol-3-yl]carbonyl}pyrimidin-4-yl)amino]-2,3-dihydroxycyclopentyl}methyl sulfamate]: the IC50 is < 10 nM and the inhibition at 0.111 µM was > 99%.

Regarding `NS(=O)(=O)OC[C@H]1C[C@@H](Nc2ncncc2C(=O)c2ccn(Cc3ccc(C(F)(F)F)cc3C(F)(F)F)n2)[C@H](O)[C@@H]1O` [Compound I-266, [(1R,2R,3S,4R)-4-{[5-({1-[2,4-bis(trifluoromethyl)benzyl]-1H-pyrazol-3-yl}carbonyl)pyrimidin-4-yl]amino}-2,3-dihydroxycyclopentyl]methyl sulfamate], the IC50 is 10 to 100 nM and the inhibition at 0.111 µM was 87%.

As to `Cc1ccc(Cn2ccc(C(=O)c3cncnc3N[C@@H]3C[C@H](COS(N)(=O)=O)[C@@H](O)[C@@H]3F)c2)o1` [Compound I-277, [(1R,2R,3R,4R)-3-fluoro-2-hydroxy-4-{[5-({1-[(5-methyl-2-furyl)methyl]-1H-pyrrol-3-yl}carbonyl)pyrimidin-4-yl]amino}cyclopentyl]methyl sulfamate], the IC50 was < 10 nM and the inhibition at 0.111 µM worked out at 99%.

For the compound `NS(=O)(=O)OC[C@H]1C[C@@H](Nc2ncncc2C(=O)c2ccn(Cc3cccc(OC(F)F)c3)n2)[C@H](O)[C@@H]1O` [Compound I-256, [(1R,2R,3S,4R)-4-{[5-({1-[3-(difluoromethoxy)benzyl]-1H-pyrazol-3-yl}carbonyl)pyrimidin-4-yl]amino}-2,3-dihydroxycyclopentyl]methyl sulfamate], the IC50 is < 10 nM and the inhibition at 0.111 µM is 99%.

`NS(=O)(=O)OC[C@H]1C[C@@H](Nc2ncncc2C(=O)c2ccn(Cc3cccc(Br)c3)n2)[C@H](O)[C@@H]1O` [Compound I-240, {(1R,2R,3S,4R)-4-[(5-{[1-(3-bromobenzyl)-1H-pyrazol-3-yl]carbonyl}pyrimidin-4-yl)amino]-2,3-dihydroxycyclopentyl}methyl sulfamate]: the half-inhibitory concentration (IC50) was < 10 nM and the inhibition at 0.111 µM was 100%.

Consider `NS(=O)(=O)OC[C@H]1C[C@@H](Nc2ccncc2C(=O)c2ccn(Cc3cccc(Br)c3)n2)C[C@@H]1O` [Compound I-223, {(1R,2S,4R)-4-[(3-{[1-(3-bromobenzyl)-1H-pyrazol-3-yl]carbonyl}pyridin-4-yl)amino]-2-hydroxycyclopentyl}methyl sulfamate], for which the IC50 is < 10 nM and the inhibition at 0.111 µM was found to be 99%.

Take `NS(=O)(=O)OC[C@H]1C[C@@H](Nc2ccncc2C(=O)c2ccn(Cc3cccc(OC(F)(F)F)c3)c2)C[C@@H]1O` [Compound I-83, [(1R,2S,4R)-2-Hydroxy-4-{[3-({1-[3-(trifluoromethoxy)benzyl]-1H-pyrrol-3-yl}carbonyl)pyridin-4-yl]amino}cyclopentyl]methyl sulfamate]: the IC50 lay within 10 to 100 nM and the inhibition at 0.111 µM came to 88%.

As for `NS(=O)(=O)OC[C@H]1C[C@@H](Nc2ncncc2C(=O)c2ccn(Cc3ccc(F)cc3Cl)n2)C[C@@H]1O` [Compound I-185, {(1R,2S,4R)-4-[(5-{[1-(2-chloro-4-fluorobenzyl)-1H-pyrazol-3-yl]carbonyl}pyrimidin-4-yl)amino]-2-hydroxycyclopentyl}methyl sulfamate], the IC50 was < 10 nM and the inhibition at 0.111 µM worked out at 91%.

In the case of `NS(=O)(=O)OC[C@H]1C[C@@H](Nc2ncncc2C(=O)c2ccn(CC(=O)c3cccc(Br)c3)n2)[C@H](O)[C@@H]1O` [Compound I-96, [(1R,2R,3S,4R)-4-{[5-({1-[2-(3-bromophenyl)-2-oxoethyl]-1H-pyrazol-3-yl}carbonyl)pyrimidin-4-yl]amino}-2,3-dihydroxycyclopentyl]methyl sulfamate], the IC50 is < 10 nM and the inhibition at 0.111 µM was 98%.

With `NS(=O)(=O)OC[C@H]1C[C@@H](Nc2ncncc2C(=O)c2ccn(Cc3ccc(Cl)cc3)n2)C[C@@H]1O` [Compound I-47, {(1R,2S,4R)-4-[(5-{[1-{4-chlorobenzyl)-1H-pyrazol-3-yl]carbonyl}pyrimidin-4-yl)amino]-2-hydroxycyclopentyl}methyl sulfamate], the IC50 was < 10 nM and the inhibition at 0.111 µM was found to be 98%.

For the compound `NS(=O)(=O)OC[C@H]1C[C@@H](Nc2ncncc2C(=O)c2ccn(Cc3ccc(F)c(OC(F)(F)F)c3)n2)[C@H](O)[C@@H]1O` [Compound I-134, [(1R,2R,3S,4R)-4-{[5-({1-[4-fluoro-3-(trifluoromethoxy)benzyl]-1H-pyrazol-3-yl}carbonyl)pyrimidin-4-yl]amino}-2,3-dihydroxycyclopentyl]methyl sulfamate], the IC50 was < 10 nM and the inhibition at 0.111 µM came to 98%.

For `NS(=O)(=O)OC[C@H]1C[C@@H](Nc2ncncc2C(=O)c2ccn(Cc3ccccc3)n2)C(F)(F)[C@@H]1O` [Compound I-203, [(1R,2R,4R)-4-({5-[(1-benzyl-1H-pyrazol-3-yl)carbonyl]pyrimidin-4-yl}amino)-3,3-difluoro-2-hydroxycyclopentyl]methyl sulfamate], the IC50 is < 10 nM and the inhibition at 0.111 µM came out at 94%.

In the case of `NS(=O)(=O)OC[C@H]1C[C@@H](Nc2ncncc2C(=O)c2ccn(CC3=CCCCC3)n2)C[C@@H]1O` [Compound I-252, {(1R,2S,4R)-4-[(5-{[1-(cyclohex-1-en-1-ylmethyl)-1H-pyrazol-3-yl]carbonyl}pyrimidin-4-yl)amino]-2-hydroxycyclopentyl}methyl sulfamate], the IC50 is < 10 nM and the inhibition at 0.111 µM amounted to 97%.

In the case of `C/C=C/Cn1ccc(C(=O)c2cncnc2N[C@@H]2C[C@H](COS(N)(=O)=O)[C@@H](O)C2)n1` [Compound I-107, [(1R,2S,4R)-4-{[5-({1-[(2E)-but-2-en-1-yl]-1H-pyrazol-3-yl}carbonyl)pyrimidin-4-yl]amino}-2-hydroxycyclopentyl]methyl sulfamate], the IC50 was in the range of 10 to 100 nM and the inhibition at 0.111 µM turned out to be 70%.

With `NS(=O)(=O)OC[C@H]1C[C@@H](Nc2ncncc2C(=O)c2ccn(Cc3cccc(F)c3F)n2)C[C@@H]1O` [Compound I-219, {(1R,2S,4R)-4-[(5-{[1-(2,3-difluorobenzyl)-1H-pyrazol-3-yl]carbonyl}pyrimidin-4-yl)amino]-2-hydroxycyclopentyl}methyl sulfamate], the IC50 was < 10 nM and the inhibition at 0.111 µM was 99%.

As for `NS(=O)(=O)OC[C@H]1C[C@@H](Nc2ncncc2C(=O)c2ccn(CC#CC3CC3)n2)C[C@@H]1O` [Compound I-287, {(1R,2S,4R)-4-[(5-{[1-(3-cyclopropylprop-2-yn-1-yl)-1H-pyrazol-3-yl]carbonyl}pyrimidin-4-yl)amino]-2-hydroxycyclopentyl}methyl sulfamate], the IC50 was < 10 nM and the inhibition at 0.111 µM is 95%.

Turning to `NS(=O)(=O)OC[C@H]1C[C@@H](Nc2ncncc2C(=O)c2ccn(Cc3cccc(OC(F)F)c3)n2)[C@@H](F)[C@@H]1O` [Compound I-303, [(1R,2R,3R,4R)-4-{[5-({1-[3-(difluoromethoxy)benzyl]-1H-pyrazol-3-yl}carbonyl)pyrimidin-4-yl]amino}-3-fluoro-2-hydroxycyclopentyl]methyl sulfamate], the IC50 was < 10 nM and the inhibition at 0.111 µM was 99%.

Consider `C#Cc1cccc([C@@H](C)n2ccc(C(=O)c3cncnc3N[C@@H]3C[C@H](COS(N)(=O)=O)[C@@H](O)C3)n2)c1` (single isomer, unassigned) [Compound I-10], for which the IC50 was 10 to 100 nM and the inhibition at 0.111 µM came to 61%.

The term IC50 denotes the concentration at which inhibition is half-maximal. The term inhibition denotes the drop in the measured response relative to a control, in per cent.
